Columns and labels:
[1] = target: Sigma non-opioid intracellular receptor 1 (Homo sapiens, UniProt Q99720); experiment: Inhibition of Sigma 1 at 10 µM in the Eurofins-Panlabs radioligand binding assay (Eurofins_assay_278110); parameters: ligand concentration 8 nM; details: Compound concentration 10.0 uM
[2] = target: Mitogen-activated protein kinase kinase kinase 13 (Homo sapiens) (UniProt O43283); experiment: LZK DiscoveRx kinase panel; details: Compound concentration 1.0 uM
[3] = target: Myosin light chain kinase (Homo sapiens) (UniProt Q32MK0); experiment: MLCK DiscoveRx kinase panel; details: Compound concentration 1.0 uM
[4] = target: Serine/threonine-protein kinase 32C (Homo sapiens) (UniProt Q86UX6); experiment: YANK3 DiscoveRx kinase panel; details: Compound concentration 1.0 uM
Chain of Serine/threonine-protein kinase 32C (Homo sapiens) (Q86UX6 whole entry): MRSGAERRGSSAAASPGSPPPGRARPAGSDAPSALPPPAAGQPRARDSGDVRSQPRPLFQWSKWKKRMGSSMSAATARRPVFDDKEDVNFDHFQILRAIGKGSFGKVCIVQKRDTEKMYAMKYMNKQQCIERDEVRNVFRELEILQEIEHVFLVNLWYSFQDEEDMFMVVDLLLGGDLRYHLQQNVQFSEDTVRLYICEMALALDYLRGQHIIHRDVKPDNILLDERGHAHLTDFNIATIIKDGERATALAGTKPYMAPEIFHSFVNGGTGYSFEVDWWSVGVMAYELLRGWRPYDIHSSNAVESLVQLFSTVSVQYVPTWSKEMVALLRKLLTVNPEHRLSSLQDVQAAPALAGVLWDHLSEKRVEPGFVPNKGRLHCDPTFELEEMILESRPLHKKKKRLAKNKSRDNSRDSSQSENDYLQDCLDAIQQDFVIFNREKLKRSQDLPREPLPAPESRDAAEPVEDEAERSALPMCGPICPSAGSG

[5] = target: BMP-2-inducible protein kinase (Homo sapiens) (UniProt Q9NSY1); experiment: BIKE DiscoveRx kinase panel; details: Compound concentration 1.0 uM
[6] = target: Serine/threonine-protein kinase 38-like (Homo sapiens) (UniProt Q9Y2H1); experiment: NDR2 DiscoveRx kinase panel; details: Compound concentration 1.0 uM
[7] = target: Mast/stem cell growth factor receptor Kit (Homo sapiens) (UniProt P10721); experiment: KIT DiscoveRx kinase panel; details: Compound concentration 1.0 uM
[8] = target: Serine/threonine-protein kinase Nek9 (Homo sapiens) (UniProt Q8TD19); experiment: NEK9 DiscoveRx kinase panel; details: Compound concentration 1.0 uM
[9] = target: Serine/threonine-protein kinase BRSK2 (Homo sapiens) (UniProt Q8IWQ3); experiment: BRSK2 DiscoveRx kinase panel; details: Compound concentration 1.0 uM
[10] = target: Tyrosine-protein kinase FRK (Homo sapiens) (UniProt P42685); experiment: FRK DiscoveRx kinase panel; details: Compound concentration 1.0 uM
Chain of Tyrosine-protein kinase FRK (Homo sapiens) (P42685 whole entry): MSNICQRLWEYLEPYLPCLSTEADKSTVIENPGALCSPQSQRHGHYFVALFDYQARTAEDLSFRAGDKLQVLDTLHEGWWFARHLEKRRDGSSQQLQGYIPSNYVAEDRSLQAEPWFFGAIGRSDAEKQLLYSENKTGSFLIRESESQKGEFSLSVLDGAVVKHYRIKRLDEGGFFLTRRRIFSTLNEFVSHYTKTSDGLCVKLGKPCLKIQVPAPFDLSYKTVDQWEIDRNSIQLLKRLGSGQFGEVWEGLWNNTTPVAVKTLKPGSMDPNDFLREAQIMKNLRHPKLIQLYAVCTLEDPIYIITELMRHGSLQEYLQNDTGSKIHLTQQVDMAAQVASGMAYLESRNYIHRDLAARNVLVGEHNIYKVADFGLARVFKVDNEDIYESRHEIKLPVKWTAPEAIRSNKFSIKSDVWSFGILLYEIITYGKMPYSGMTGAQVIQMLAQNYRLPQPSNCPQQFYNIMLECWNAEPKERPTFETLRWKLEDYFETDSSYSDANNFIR

[11] = target: Tyrosine-protein kinase Blk (Homo sapiens) (UniProt P51451); experiment: BLK DiscoveRx kinase panel; details: Compound concentration 1.0 uM
[12] = target: Serine/threonine-protein kinase NIM1 (Homo sapiens) (UniProt Q8IY84); experiment: NIM1 DiscoveRx kinase panel; details: Compound concentration 1.0 uM
Chain of Serine/threonine-protein kinase NIM1 (Homo sapiens) (Q8IY84 whole entry): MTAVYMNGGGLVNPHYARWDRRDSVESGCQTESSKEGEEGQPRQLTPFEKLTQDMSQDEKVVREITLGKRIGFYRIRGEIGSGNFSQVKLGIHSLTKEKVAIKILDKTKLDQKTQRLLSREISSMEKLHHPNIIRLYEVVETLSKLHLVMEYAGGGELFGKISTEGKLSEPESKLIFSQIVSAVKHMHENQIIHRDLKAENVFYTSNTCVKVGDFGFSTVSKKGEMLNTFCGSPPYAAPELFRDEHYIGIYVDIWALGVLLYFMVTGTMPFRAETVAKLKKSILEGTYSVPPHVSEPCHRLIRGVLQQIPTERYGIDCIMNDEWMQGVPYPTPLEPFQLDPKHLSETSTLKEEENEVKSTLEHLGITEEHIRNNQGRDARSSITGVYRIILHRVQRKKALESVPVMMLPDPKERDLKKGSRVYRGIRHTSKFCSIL

[13] = target: Serine/threonine-protein kinase Chk1 (Homo sapiens) (UniProt O14757); experiment: CHEK1 DiscoveRx kinase panel; details: Compound concentration 1.0 uM
Chain of Serine/threonine-protein kinase Chk1 (Homo sapiens) (O14757 whole entry): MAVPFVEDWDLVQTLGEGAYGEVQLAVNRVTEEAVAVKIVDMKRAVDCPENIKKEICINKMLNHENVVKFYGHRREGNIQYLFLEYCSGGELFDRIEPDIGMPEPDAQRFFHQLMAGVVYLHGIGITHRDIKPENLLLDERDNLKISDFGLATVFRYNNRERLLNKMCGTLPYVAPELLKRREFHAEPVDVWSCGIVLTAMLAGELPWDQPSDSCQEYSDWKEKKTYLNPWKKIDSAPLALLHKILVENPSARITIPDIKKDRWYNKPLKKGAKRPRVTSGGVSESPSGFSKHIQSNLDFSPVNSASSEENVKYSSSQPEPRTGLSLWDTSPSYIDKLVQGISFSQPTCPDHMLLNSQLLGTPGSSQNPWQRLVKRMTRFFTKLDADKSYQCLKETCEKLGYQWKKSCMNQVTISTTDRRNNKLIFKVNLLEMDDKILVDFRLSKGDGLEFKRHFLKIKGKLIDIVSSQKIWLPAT

[14] = target: Dual specificity mitogen-activated protein kinase kinase 2 (Homo sapiens) (UniProt P36507); experiment: MEK2 DiscoveRx kinase panel; details: Compound concentration 1.0 uM
[15] = target: Mitogen-activated protein kinase 4 (Homo sapiens) (UniProt P31152); experiment: ERK4 DiscoveRx kinase panel; details: Compound concentration 1.0 uM
[16] = target: Serine/threonine-protein kinase Nek11 (Homo sapiens) (UniProt Q8NG66); experiment: NEK11 DiscoveRx kinase panel; details: Compound concentration 1.0 uM
[17] = target: Calcium/calmodulin-dependent protein kinase type II subunit delta (Homo sapiens) (UniProt Q13557); experiment: CAMK2D DiscoveRx kinase panel; details: Compound concentration 1.0 uM
[18] = target: Calcium/calmodulin-dependent protein kinase kinase 2 (Homo sapiens) (UniProt Q96RR4); experiment: CAMKK2 DiscoveRx kinase panel; details: Compound concentration 1.0 uM
[19] = target: Cyclin-dependent kinase 13 (Homo sapiens) (UniProt Q14004); experiment: CDC2L5 DiscoveRx kinase panel; details: Compound concentration 1.0 uM
[20] = target: Serine/threonine-protein kinase DCLK3 (Homo sapiens) (UniProt Q9C098); experiment: DCAMKL3 DiscoveRx kinase panel; details: Compound concentration 1.0 uM
Chain of Serine/threonine-protein kinase DCLK3 (Homo sapiens) (Q9C098 whole entry): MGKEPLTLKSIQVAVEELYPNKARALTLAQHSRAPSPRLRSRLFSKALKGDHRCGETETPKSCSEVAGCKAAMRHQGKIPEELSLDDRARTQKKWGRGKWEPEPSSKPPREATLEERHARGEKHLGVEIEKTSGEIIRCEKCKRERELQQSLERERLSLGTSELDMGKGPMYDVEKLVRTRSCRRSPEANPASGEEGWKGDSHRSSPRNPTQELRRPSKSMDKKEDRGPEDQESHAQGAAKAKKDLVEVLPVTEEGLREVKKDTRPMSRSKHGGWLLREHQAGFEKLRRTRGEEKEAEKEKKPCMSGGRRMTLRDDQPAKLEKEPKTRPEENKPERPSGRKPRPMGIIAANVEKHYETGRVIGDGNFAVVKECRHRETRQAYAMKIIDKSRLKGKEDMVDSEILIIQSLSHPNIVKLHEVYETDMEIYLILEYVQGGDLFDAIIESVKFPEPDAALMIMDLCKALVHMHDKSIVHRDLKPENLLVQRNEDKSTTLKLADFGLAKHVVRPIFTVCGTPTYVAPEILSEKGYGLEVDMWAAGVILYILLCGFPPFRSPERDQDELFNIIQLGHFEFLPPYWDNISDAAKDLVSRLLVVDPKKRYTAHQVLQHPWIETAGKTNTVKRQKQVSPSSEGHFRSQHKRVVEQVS

[21] = target: Epidermal growth factor receptor (Homo sapiens) (UniProt P00533); experiment: EGFR DiscoveRx kinase panel; details: Compound concentration 1.0 uM
[22] = target: Ephrin type-B receptor 1 (Homo sapiens) (UniProt P54762); experiment: EPHB1 DiscoveRx kinase panel; details: Compound concentration 1.0 uM
[23] = target: Serine/threonine-protein kinase haspin (Homo sapiens) (UniProt Q8TF76); experiment: HASPIN DiscoveRx kinase panel; details: Compound concentration 1.0 uM
[24] = target: Inhibitor of nuclear factor kappa-B kinase subunit alpha (Homo sapiens) (UniProt O15111); experiment: IKK-alpha DiscoveRx kinase panel; details: Compound concentration 1.0 uM
[25] = target: Leukocyte tyrosine kinase receptor (Homo sapiens) (UniProt P29376); experiment: LTK DiscoveRx kinase panel; details: Compound concentration 1.0 uM
[26] = target: Myosin-IIIa (Homo sapiens) (UniProt Q8NEV4); experiment: MYO3A DiscoveRx kinase panel; details: Compound concentration 1.0 uM
[27] = target: Serine/threonine-protein kinase OSR1 (Homo sapiens) (UniProt O95747); experiment: OSR1 DiscoveRx kinase panel; details: Compound concentration 1.0 uM
[28] = target: Cyclin-dependent kinase 16 (Homo sapiens) (UniProt Q00536); experiment: PCTK1 DiscoveRx kinase panel; details: Compound concentration 1.0 uM
[29] = target: 3-phosphoinositide-dependent protein kinase 1 (Homo sapiens) (UniProt O15530); experiment: PDPK1 DiscoveRx kinase panel; details: Compound concentration 1.0 uM
[30] = target: cAMP-dependent protein kinase catalytic subunit alpha (Homo sapiens) (UniProt P17612); experiment: PKAC-alpha DiscoveRx kinase panel; details: Compound concentration 1.0 uM
[31] = target: Membrane-associated tyrosine- and threonine-specific cdc2-inhibitory kinase (Homo sapiens) (UniProt Q99640); experiment: PKMYT1 DiscoveRx kinase panel; details: Compound concentration 1.0 uM
[32] = target: Serine/threonine-protein kinase RIO2 (Homo sapiens) (UniProt Q9BVS4); experiment: RIOK2 DiscoveRx kinase panel; details: Compound concentration 1.0 uM
[33] = target: Dual serine/threonine and tyrosine protein kinase (Homo sapiens) (UniProt Q6XUX3); experiment: RIPK5 DiscoveRx kinase panel; details: Compound concentration 1.0 uM
Chain of Dual serine/threonine and tyrosine protein kinase (Homo sapiens) (Q6XUX3 whole entry): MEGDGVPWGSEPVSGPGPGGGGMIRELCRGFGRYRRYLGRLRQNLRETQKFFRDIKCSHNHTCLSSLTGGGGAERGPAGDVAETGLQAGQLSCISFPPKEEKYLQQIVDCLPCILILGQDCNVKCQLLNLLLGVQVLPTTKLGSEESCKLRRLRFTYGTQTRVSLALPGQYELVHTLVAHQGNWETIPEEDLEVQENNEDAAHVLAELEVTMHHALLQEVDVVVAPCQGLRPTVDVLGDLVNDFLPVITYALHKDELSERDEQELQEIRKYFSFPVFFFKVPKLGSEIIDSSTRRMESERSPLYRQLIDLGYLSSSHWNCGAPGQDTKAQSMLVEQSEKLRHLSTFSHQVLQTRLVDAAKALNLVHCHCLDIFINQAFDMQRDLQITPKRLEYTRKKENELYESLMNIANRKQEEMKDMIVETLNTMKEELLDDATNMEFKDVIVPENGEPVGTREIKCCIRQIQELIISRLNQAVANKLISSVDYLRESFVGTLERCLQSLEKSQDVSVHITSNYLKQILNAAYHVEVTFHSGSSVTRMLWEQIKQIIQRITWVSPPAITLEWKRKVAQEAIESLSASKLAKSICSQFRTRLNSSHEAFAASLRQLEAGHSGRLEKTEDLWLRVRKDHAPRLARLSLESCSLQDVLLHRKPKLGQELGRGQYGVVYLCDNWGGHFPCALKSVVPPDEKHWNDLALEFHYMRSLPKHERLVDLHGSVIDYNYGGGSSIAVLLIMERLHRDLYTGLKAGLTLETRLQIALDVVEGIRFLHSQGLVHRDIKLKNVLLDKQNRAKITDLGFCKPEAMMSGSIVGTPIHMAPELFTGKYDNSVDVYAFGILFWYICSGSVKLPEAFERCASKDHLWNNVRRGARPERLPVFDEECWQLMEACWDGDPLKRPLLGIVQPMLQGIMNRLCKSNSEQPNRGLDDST

[34] = target: Ribosomal protein S6 kinase beta-1 (Homo sapiens) (UniProt P23443); experiment: S6K1 DiscoveRx kinase panel; details: Compound concentration 1.0 uM
Chain of Ribosomal protein S6 kinase beta-1 (Homo sapiens) (P23443 whole entry, looked up): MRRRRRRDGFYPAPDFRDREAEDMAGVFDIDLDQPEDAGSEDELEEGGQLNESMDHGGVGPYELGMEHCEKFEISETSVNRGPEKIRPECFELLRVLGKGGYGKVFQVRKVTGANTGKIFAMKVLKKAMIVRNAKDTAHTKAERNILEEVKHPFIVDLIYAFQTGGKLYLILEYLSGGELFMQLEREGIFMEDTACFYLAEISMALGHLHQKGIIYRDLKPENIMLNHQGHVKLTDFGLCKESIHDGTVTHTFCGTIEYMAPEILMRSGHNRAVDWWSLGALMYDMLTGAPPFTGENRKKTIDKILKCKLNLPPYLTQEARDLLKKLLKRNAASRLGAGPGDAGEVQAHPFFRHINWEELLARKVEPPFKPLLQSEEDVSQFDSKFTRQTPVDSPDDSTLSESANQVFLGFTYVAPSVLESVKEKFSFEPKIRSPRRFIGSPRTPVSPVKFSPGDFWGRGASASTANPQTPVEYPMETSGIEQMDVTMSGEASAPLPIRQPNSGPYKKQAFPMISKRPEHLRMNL

[35] = target: Tyrosine-protein kinase Srms (Homo sapiens) (UniProt Q9H3Y6); experiment: SRMS DiscoveRx kinase panel; details: Compound concentration 1.0 uM
[36] = target: Serine/threonine-protein kinase TAO1 (Homo sapiens) (UniProt Q7L7X3); experiment: TAOK1 DiscoveRx kinase panel; details: Compound concentration 1.0 uM
[37] = target: Wee1-like protein kinase (Homo sapiens) (UniProt P30291); experiment: WEE1 DiscoveRx kinase panel; details: Compound concentration 1.0 uM
[38] = target: Muscarinic acetylcholine receptor M1 (Homo sapiens) (UniProt P11229); experiment: Muscarinic M1 Eurofins-Panlabs radioligand binding assay; details: Compound concentration 10.0 uM
[39] = target: 5-hydroxytryptamine receptor 2A (Homo sapiens) (UniProt P28223); experiment: Serotonin (5-Hydroxytryptamine) 5-HT2A Eurofins-Panlabs radioligand binding assay; details: Compound concentration 10.0 uM
[40] = target: Muscarinic acetylcholine receptor M5 (Homo sapiens) (UniProt P08912); details: Compound concentration 10.0 uM
[41] = target: D(1A) dopamine receptor (Homo sapiens) (UniProt P21728); details: Compound concentration 10.0 uM
[42] = target: Estrogen receptor (Homo sapiens) (UniProt P03372); details: Compound concentration 10.0 uM
Chain of Estrogen receptor (Homo sapiens) (P03372 whole entry): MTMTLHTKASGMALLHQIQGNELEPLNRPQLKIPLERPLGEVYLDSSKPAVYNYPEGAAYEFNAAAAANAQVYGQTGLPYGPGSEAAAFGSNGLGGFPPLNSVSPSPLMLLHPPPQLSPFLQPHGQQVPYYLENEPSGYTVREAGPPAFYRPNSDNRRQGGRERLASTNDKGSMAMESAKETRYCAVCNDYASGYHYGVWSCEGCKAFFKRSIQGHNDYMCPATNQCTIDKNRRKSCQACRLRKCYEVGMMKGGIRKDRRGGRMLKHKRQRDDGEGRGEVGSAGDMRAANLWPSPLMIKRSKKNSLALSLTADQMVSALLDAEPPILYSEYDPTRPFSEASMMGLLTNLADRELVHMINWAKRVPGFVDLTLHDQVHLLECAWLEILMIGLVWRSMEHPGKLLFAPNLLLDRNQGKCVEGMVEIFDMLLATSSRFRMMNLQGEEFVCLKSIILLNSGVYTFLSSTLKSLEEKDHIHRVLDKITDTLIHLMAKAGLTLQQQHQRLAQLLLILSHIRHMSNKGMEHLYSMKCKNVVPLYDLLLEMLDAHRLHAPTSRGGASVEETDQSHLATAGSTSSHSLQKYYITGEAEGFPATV

[43] = target: GABA-A receptor; anion channel (Rattus norvegicus) (UniProt O09028+P15431+P18506+P18508+P19969+P20236+P23574+P23576+P28471+P28473+P30191+P62813+P63079+P63138+Q91ZM7+Q9ES14); details: Compound concentration 10.0 uM
[44] = target: Glutamate NMDA receptor (Rattus norvegicus) (UniProt P35439+Q00959+Q00960+Q00961+Q62645+Q8VHN2+Q9R1M7); details: Compound concentration 10.0 uM
Rattus norvegicus = organism: Rattus norvegicus; details: Compound concentration 10.0 uM
[45] = target: Cannabinoid receptor 2 (Homo sapiens) (UniProt P34972); details: Compound concentration 10.0 uM

Chain of Sigma non-opioid intracellular receptor 1 (Q99720 whole entry): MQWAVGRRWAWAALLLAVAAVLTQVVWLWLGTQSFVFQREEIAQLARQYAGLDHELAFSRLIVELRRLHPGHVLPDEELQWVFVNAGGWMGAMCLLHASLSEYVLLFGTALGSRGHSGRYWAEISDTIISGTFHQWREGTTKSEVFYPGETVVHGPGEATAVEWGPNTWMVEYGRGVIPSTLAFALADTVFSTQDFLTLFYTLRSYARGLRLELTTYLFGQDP

With COc1cnccc1Nc1nc(-c2nn(Cc3c(F)cc(OCCO)cc3F)c3ccccc23)ncc1OC as the compound, how does the inhibition [1] read?
The inhibition was -3%.

What about the residual activity [2] of the same compound?
Its residual activity is 53%.

And the residual activity [3]?
The residual activity was 72%.

And the residual activity [4]?
The residual activity was 72%.

And the residual activity [5]?
Its residual activity is 74%.

What about the residual activity [6] of the same compound?
Its residual activity is 78%.

And the residual activity [7]?
The residual activity was 82%.

And the residual activity [8]?
The residual activity was 82%.

And the residual activity [9]?
The residual activity was 83%.

And the residual activity [10]?
The residual activity was 85%.

And the residual activity [11]?
Its residual activity is 88%.

What about the residual activity [12] of the same compound?
Its residual activity is 88%.

And the residual activity [13]?
The residual activity was 93%.

What about the residual activity [14] of the same compound?
The residual activity was 94%.

What about the residual activity [15] of the same compound?
The residual activity was 96%.

What about the residual activity [16] of the same compound?
Its residual activity is 96%.

And the residual activity [17]?
Its residual activity is 100%.

What about the residual activity [18] of the same compound?
The residual activity was 100%.

What about the residual activity [19] of the same compound?
Its residual activity is 100%.

What about the residual activity [20] of the same compound?
The residual activity was 100%.

What about the residual activity [21] of the same compound?
The residual activity was 100%.

What about the residual activity [22] of the same compound?
The residual activity was 100%.

And the residual activity [23]?
Its residual activity is 100%.

What about the residual activity [24] of the same compound?
The residual activity was 100%.

And the residual activity [25]?
Its residual activity is 100%.

And the residual activity [26]?
Its residual activity is 100%.

What about the residual activity [27] of the same compound?
Its residual activity is 100%.

And the residual activity [28]?
The residual activity was 100%.

What about the residual activity [29] of the same compound?
Its residual activity is 100%.

And the residual activity [30]?
Its residual activity is 100%.

What about the residual activity [31] of the same compound?
Its residual activity is 100%.

And the residual activity [32]?
The residual activity was 100%.

What about the residual activity [33] of the same compound?
Its residual activity is 100%.

What about the residual activity [34] of the same compound?
Its residual activity is 100%.

And the residual activity [35]?
Its residual activity is 100%.

And the residual activity [36]?
Its residual activity is 100%.

And the residual activity [37]?
Its residual activity is 100%.

What about the inhibition [38] of the same compound?
Its inhibition is 32%.

And the inhibition [39]?
Its inhibition is 22%.

And the inhibition [40]?
Its inhibition is 8.89%.

What about the inhibition [41] of the same compound?
Its inhibition is 5%.

What about the inhibition [42] of the same compound?
The inhibition was 10%.

And the inhibition [43]?
The inhibition was 7%.

And the inhibition [44]?
The inhibition was 4%.

What about the inhibition (Rattus norvegicus) of the same compound?
Its inhibition is 1%.

What about the inhibition [45] of the same compound?
The inhibition was 31%.
